Patent US20230355540A1, “STROKE TREATMENT” (Oxford University Innovation Limited, priority 2020, published 2023)

Assays:
[1] = Mean arterial pressure through femoral artery catheter during infusion after MCAo (Examples 4 and 5); assay type: in vivo, rat; conditions: from 25 minutes after MCAo for 45 minutes
Experimental: Animals were randomized to receive intravenous infusion of saline (control, 0.3 ml/hr n=6) or infusion of free nitroglycerin (free-GTN, 0.25 μg/μl in saline, at 300 μl/h=4 μg/kg/min, n=6), commencing 25 minutes after MCAo.
Animals received intravenous infusion of free nitroglycerin (free-GTN, 2.5 μg/μl in saline, at 300 μl/h=40 μg/kg/min, n=4), commencing 25 minutes after MCAo. […] Vehicle control (saline) was the same control group used for 4 μg/kg/min studies (n=6).

[2] = test system: Spontaneously Hypertensive Rats, middle cerebral artery occlusion (MCAo/stroke); assay: Collateral and control hemisphere perfusion by laser speckle contrast imaging after MCAo (Examples 4 and 5); assay type: in vivo, rat; conditions: from 25 minutes after MCAo for 45 minutes
[3] = test system: patients suffering ultra-acute stroke; conditions: transdermal (i.e. systemic) delivery; cited from earlier work
[4] = test system: Spontaneously Hypertensive Rats, middle cerebral artery occlusion (MCAo/stroke); conditions: FIG. 3
Experimental: Animal experiments were performed on male Spontaneously Hypertensive Rats (SHRs) weighing 300-350 g (Harlan, Bicester, UK). All animals were housed in a 12 h light/dark cycle and had ad libitum access to food and water prior to experiments.
Rats were anesthetized with 5% isoflurane in O2/N2 (1:3) and maintained with 1% to 2% isoflurane. Core temperature was maintained at 37° C. by a thermocouple rectal probe and warming plate (Harvard Apparatus, UK). Incision sites were shaved, cleaned, and injected subcutaneously with 2 mg/kg 0.05% Bupivacaine (Aspen, UK). A femoral arterial line was used for continuous arterial pressure monitoring.
The filament was advanced into the right external carotid artery stump and up the internal carotid artery to occlude the origin of the right MCA.
Laser Doppler flowmetry (LDF) (Oxford Optronix, Oxford, UK) was used to measure changes in cerebral blood flow (CBF) in both the MCA and collateral arterial territories using dual probes. The animal's head was secured with ear bars in a stereotaxic frame. […]
Prior to MCAo, the femoral vein was cannulated with 2-French silicon tubing. […] Collateral perfusion was measured as a change from pre-injection baseline.
Prior to MCAo, the femoral vein was cannulated with 2-French silicon tubing. […] Collateral perfusion was measured as a % change from pre-injection baseline.

[5] = i.v. infusion 4 μg/kg/min nitroglycerin

O=[N+]([O-])OCC(CO[N+](=O)[O-])O[N+](=O)[O-] [nitroglycerin]
blood pressure (mean arterial pressure) [1, 5]: dropped
blood pressure (mean arterial pressure) ([1]; i.v. infusion 40 μg/kg/min, FIG. 16): significantly dropped
perfusion in the corresponding region of the control/contralateral hemisphere [2, 5]: no significant effect
collateral blood perfusion (% change from pre-injection baseline) ([2]; i.v. infusion 4 μg/kg/min nitroglycerin, stroke hemisphere): did not change
collateral blood perfusion (% change from pre-injection baseline) ([2]; i.v. infusion 40 μg/kg/min, FIG. 14): did not change
perfusion in the corresponding region of the control/contralateral hemisphere ([2]; i.v. infusion 40 μg/kg/min, FIG. 15): no significant effect
functional outcome [3]: did not improve
peak collateral perfusion ([4]; free nitroglycerin not delivered using a SA-NT, Example 3b): only a modest increase
collateral perfusion with increasing doses ([4]; one SHR, i.v. bolus over 1 minute of 12.5, 25, 50 and 100 m, from 30 minutes after MCAo): no additional increase
